According to patent publication US3985761A, “Nitrothiazolyl derivatives of nitrostyrene” (priority 1974, dated 1976):
≈ marks a conversion by molar mass, not a printed value. Like-named read-outs stand apart in the source and are kept apart here.

Legend:
Hymenolepsis nana = assay: Activity against tapeworms Hymenolepsis nana in mice; assay type: in vivo, Hymenolepsis nana (infected Albimo mice); settings: Mus musculus, po, 72 h, read-out: Activity: % of infected mice getting 100% clearance
Experimental: The anthelmintic properties of the products of the invention have been determined as follows:
Albimo mice of either sex (18-20 g.weight range) were administered by gavage 0.2 ml of the standard inoculum (containing 1000 viable eggs). 20 days later, the faecal matter was checked for Hymenolipis nana eggs. Mice showing the presence of H nana eggs were taken for experiments. They were classified on the weight basis. 5 animals were taken in each cage.
Compounds of the invention under investigation were suspended in 0.2% tragacanth. Concentrations were adjusted in such a way that 0.2 ml conformed to particular dosage schedule for each compound. They were administered by gavage in fasting condition in the morning on 21st day post infection, once daily for 3 consecutive days. For each set of test compound group, one cage of infected control mice was kept. These received saline for 3 days.
After 3 consecutive days of administration, all mice were kept fasting on the subsequent day (24th day post infection) and sacrificed on the 25th day. Results of surviving mice only have been taken. From each mouse, the whole intestine including caecum was collected in a petri dish with water. It was cut open longitudinally and was examined for adult worms and scolices. Absolute clearance of worms and scolices in individual mouse was taken as a criterion for assessing the results of each group.
The data on some of the compounds studied are represented in Table II

[1] = system: antibiotic resistant Staph aureus; assay: Antimicrobial serial dilution (MIC), A/R S.a; assay type: cell-based; settings: Staphylococcus aureus, read-out: MIC A/R S.a
Ps. aeruginosa = assay: Antimicrobial serial dilution (MIC), P.a; assay type: cell-based; settings: Pseudomonas aeruginosa
E.coli = assay: Antimicrobial serial dilution (MIC), E.c.; assay type: cell-based; settings: Escherichia coli
S.Shigae = assay: microbe, parasite or virus in culture; assay type: cell-based; settings: Shigella dysenteriae, read-out: MIC S.s
Proteus vulgaris ox 19 = assay: Antimicrobial serial dilution (MIC), Pr.ox; assay type: cell-based; settings: OX19
S. typhi = assay: Antimicrobial serial dilution (MIC), S.t; assay type: cell-based; settings: Salmonella enterica
Staph. aureus = assay: Antimicrobial serial dilution (MIC), S.a; assay type: cell-based; settings: Staphylococcus aureus
Phialophora jeanselmei = assay: Antimicrobial serial dilution (MIC), Ph.je; assay type: cell-based; settings: Exophiala jeanselmei
[2] = system: Trichophyton mentagrophytes; assay: Antimicrobial serial dilution (MIC), T.m; assay type: cell-based
microsporum gypseum = assay: Antimicrobial serial dilution (MIC), M.gy; assay type: cell-based; settings: Nannizzia gypsea
Candida albicans = assay: Antimicrobial serial dilution (MIC), C.a; assay type: cell-based
Nocardia asteroides = assay: Antimicrobial serial dilution (MIC), N.a; assay type: cell-based
Aspergillus fumigatus = assay: Antimicrobial serial dilution (MIC), A.f; assay type: cell-based
plant pathogenic fungi = settings: C.A. Vol. 62, 14569e; cited from earlier work
[3] = 400 mg/kg/day × 3 days, gavage, surviving mice only

Compound	MIC [1] [µg/mL]	MIC (Ps. aeruginosa) [µg/mL]	MIC (E.coli) [µg/mL]	MIC (S.Shigae) [µg/mL]	MIC (Proteus vulgaris ox 19) [µg/mL]	MIC (S. typhi) [µg/mL]	MIC (Staph. aureus) [µg/mL]	MIC (Phialophora jeanselmei) [µg/mL]	MIC [2] [µg/mL]	MIC (microsporum gypseum) [µg/mL]	MIC (Candida albicans) [µg/mL]	MIC (Nocardia asteroides) [µg/mL]	MIC (Aspergillus fumigatus) [µg/mL]	further results
O=C(Nc1ccc(Br)cc1)Oc1cccc(C=C[N+](=O)[O-])c1	–	–	–	–	–	–	–	–	–	–	–	–	–	responders at 400 mg/kg (Hymenolepsis nana): 100%
CC(=Cc1ccc(OC(=O)Nc2ccc(Br)cc2)cc1)[N+](=O)[O-] [drawing 4]	12.5 (≈ 33.1 µM)	≥ 50	6.25 (≈ 16.6 µM)	6.25 to 12.5 (≈ 16.6 to 33.1 µM)	6.25 (≈ 16.6 µM)	≥ 50	6.25 (≈ 16.6 µM)	–	–	–	–	–	–	–
CC(=Cc1ccc(OC(=O)Nc2ccccc2)cc1)[N+](=O)[O-] [drawing 25]	–	–	–	–	–	–	–	–	–	–	–	–	–	responders at 400 mg/kg (Hymenolepsis nana; [3]): 100%
CCCCNC(=O)Oc1ccc(C=C(C)[N+](=O)[O-])cc1 [drawing 15]	–	–	–	–	–	–	–	0.78 (≈ 2.8 µM)	0.78 (≈ 2.8 µM)	0.39 to 0.78 (≈ 1.4 to 2.8 µM)	12.5 to 25 (≈ 44.9 to 89.8 µM)	50 (≈ 180 µM)	6.25 (≈ 22.5 µM)	–
O=C(Nc1ccccc1)Oc1ccc(C=C[N+](=O)[O-])cc1	–	–	–	–	–	–	–	–	–	–	–	–	–	responders at 350 mg/kg (Hymenolepsis nana): 90%
CC(=Cc1ccc(OC(=O)Nc2ccc(C)cc2)c(Cl)c1)[N+](=O)[O-]	–	–	–	–	–	–	–	–	–	–	–	–	–	responders at 400 mg/kg (Hymenolepsis nana; [3]): 100%
CC(=Cc1ccc(Oc2ncc([N+](=O)[O-])s2)cc1)[N+](=O)[O-] [drawing 9]	1.56 (≈ 5.08 µM)	≥ 50	3.12 (≈ 10.2 µM)	3.12 (≈ 10.2 µM)	1.56 to 3.12 (≈ 5.08 to 10.2 µM)	50 (≈ 163 µM)	1.56 (≈ 5.08 µM)	–	–	–	–	–	–	–
CC(=Cc1ccc(OC(=O)Nc2ccc(Br)cc2)c(Cl)c1)[N+](=O)[O-] [drawing 22]	–	–	–	–	–	–	–	3.12 (≈ 7.59 µM)	1.56 (≈ 3.79 µM)	1.56 (≈ 3.79 µM)	25 (≈ 60.7 µM)	50 (≈ 121 µM)	6.25 (≈ 15.2 µM)	–
CC(=Cc1ccc(O)c(Cl)c1)[N+](=O)[O-] [drawing 20]	–	–	–	–	–	–	–	3.12 (≈ 14.6 µM)	1.56 (≈ 7.3 µM)	1.56 (≈ 7.3 µM)	12.5 (≈ 58.5 µM)	50 (≈ 234 µM)	6.25 (≈ 29.3 µM)	–
CC(=Cc1ccc(OC(=O)Nc2ccc(C)cc2)cc1)[N+](=O)[O-] [drawing 13]	–	–	–	–	–	–	–	6.25 (≈ 20 µM)	3.12 (≈ 10 µM)	1.56 to 3.12 (≈ 4.99 to 10 µM)	12.5 (≈ 40 µM)	25.5 (≈ 81.6 µM)	12.5 (≈ 40 µM)	–
CC(=Cc1ccc(OC(=O)NC2CCCCC2)cc1)[N+](=O)[O-] [drawing 16]	–	–	–	–	–	–	–	6.25 (≈ 20.5 µM)	0.78 (≈ 2.56 µM)	6.25 (≈ 20.5 µM)	25 (≈ 82.1 µM)	50 (≈ 164 µM)	6.25 to 12.5 (≈ 20.5 to 41.1 µM)	–
CCCCNC(=O)Oc1ccc(C=C(C)[N+](=O)[O-])cc1Cl	–	–	–	–	–	–	–	–	–	–	–	–	–	responders at 400 mg/kg (Hymenolepsis nana; [3]): 100%
CC(=Cc1ccc(OC(=O)Nc2ccc(Br)cc2)cc1)[N+](=O)[O-] [drawing 14]	–	–	–	–	–	–	–	1.56 (≈ 4.14 µM)	1.56 (≈ 4.14 µM)	1.56 (≈ 4.14 µM)	22.5 to 25 (≈ 59.7 to 66.3 µM)	50 (≈ 133 µM)	12.5 (≈ 33.1 µM)	–
CC(=Cc1ccc(OC(=O)NC2CCCCC2)cc1)[N+](=O)[O-] [drawing 6]	3.12 (≈ 10.3 µM)	≥ 50	6.12 to 12.5 (≈ 20.1 to 41.1 µM)	12.5 (≈ 41.1 µM)	6.25 to 12.5 (≈ 20.5 to 41.1 µM)	50 (≈ 164 µM)	3.12 (≈ 10.3 µM)	–	–	–	–	–	–	–
CC(=Cc1cccc(OC(=O)Nc2ccccc2)c1)[N+](=O)[O-]	–	–	–	–	–	–	–	–	–	–	–	–	–	responders at 400 mg/kg (Hymenolepsis nana; [3]): 100%
O=[N+]([O-])C=Cc1cc(Cl)ccc1O [drawing 11]	3.12 (≈ 15.7 µM)	≥ 50	50 (≈ 251 µM)	50 (≈ 251 µM)	25 (≈ 125 µM)	50 (≈ 251 µM)	3.12 (≈ 15.7 µM)	–	–	–	–	–	–	–
CC(=Cc1ccc(OC(=O)Nc2ccccc2)c(Cl)c1)[N+](=O)[O-]	–	–	–	–	–	–	–	–	–	–	–	–	–	responders at 400 mg/kg (Hymenolepsis nana; [3]): 100%
CC(=Cc1ccc(OC(=O)Nc2ccc(Br)cc2)c(Cl)c1)[N+](=O)[O-] [drawing 12]	6.25 (≈ 15.2 µM)	≥ 50	50 (≈ 121 µM)	25 (≈ 60.7 µM)	6.25 (≈ 15.2 µM)	> 50	6.25 (≈ 15.2 µM)	–	–	–	–	–	–	–
CC(=Cc1ccc(OC(=O)Nc2ccc(C)cc2)cc1)[N+](=O)[O-] [drawing 3]	6.25 (≈ 20 µM)	≥ 50	6.25 (≈ 20 µM)	12.5 (≈ 40 µM)	6.25 (≈ 20 µM)	50 (≈ 160 µM)	6.25 (≈ 20 µM)	–	–	–	–	–	–	–
CC(=Cc1cccc(O)c1)[N+](=O)[O-] [drawing 18]	–	–	–	–	–	–	–	3.12 (≈ 17.4 µM)	1.56 (≈ 8.71 µM)	1.56 (≈ 8.71 µM)	12.5 (≈ 69.8 µM)	25 (≈ 140 µM)	6.25 (≈ 34.9 µM)	–
CC(=Cc1ccc(O)c(Cl)c1)[N+](=O)[O-] [drawing 10]	3.12 (≈ 14.6 µM)	≥ 50	12.5 to 25 (≈ 58.5 to 117 µM)	25 (≈ 117 µM)	6.25 (≈ 29.3 µM)	50 (≈ 234 µM)	3.12 (≈ 14.6 µM)	–	–	–	–	–	–	–
CC(=Cc1ccc(OC(=O)Nc2ccccc2)cc1)[N+](=O)[O-] [drawing 17]	–	–	–	–	–	–	–	3.12 (≈ 10.5 µM)	3.12 to 6.25 (≈ 10.5 to 21 µM)	3.12 (≈ 10.5 µM)	25 (≈ 83.8 µM)	25 (≈ 83.8 µM)	6.25 (≈ 21 µM)	–
CCCCNC(=O)Oc1ccc(C=C(C)[N+](=O)[O-])cc1 [drawing 5]	6.25 (≈ 22.5 µM)	≥ 50	6.25 to 12.5 (≈ 22.5 to 44.9 µM)	12.5 (≈ 44.9 µM)	6.25 (≈ 22.5 µM)	50 (≈ 180 µM)	6.25 (≈ 22.5 µM)	–	–	–	–	–	–	–
Cc1ccc(NC(=O)Oc2ccc(C=C[N+](=O)[O-])cc2)cc1	–	–	–	–	–	–	–	–	–	–	–	–	–	responders at 400 mg/kg (Hymenolepsis nana): 94%
O=[N+]([O-])C=Cc1ccc(O)c([N+](=O)[O-])c1 [3-nitro-4-hydroxy-β-nitrostyrene]	–	–	–	–	–	–	–	–	–	–	–	–	–	antifungal properties against plant pathogenic fungi (plant pathogenic fungi): antifungal properties against plant pathogenic fungi
O=[N+]([O-])C=Cc1cc(Cl)ccc1O [drawing 21]	–	–	–	–	–	–	–	12.5 (≈ 62.6 µM)	6.25 (≈ 31.3 µM)	6.25 to 12.5 (≈ 31.3 to 62.6 µM)	25.5 (≈ 128 µM)	25 (≈ 125 µM)	12.5 (≈ 62.6 µM)	–
CC(=Cc1ccc(Oc2ncc([N+](=O)[O-])s2)cc1)[N+](=O)[O-] [drawing 19]	–	–	–	–	–	–	–	0.39 (≈ 1.27 µM)	0.19 (≈ 0.618 µM)	0.39 to 0.78 (≈ 1.27 to 2.54 µM)	3.12 (≈ 10.2 µM)	12.5 (≈ 40.7 µM)	1.56 (≈ 5.08 µM)	–
CC(=Cc1cccc(OC(=O)Nc2ccc(C)cc2)c1)[N+](=O)[O-]	–	–	–	–	–	–	–	–	–	–	–	–	–	responders at 200 mg/kg (Hymenolepsis nana; 200 mg/kg/day × 3 days, gavage, surviving mice only): 100%
CC(=Cc1ccc(OC(=O)Nc2ccccc2)cc1)[N+](=O)[O-] [drawing 7]	3.12 to 6.25 (≈ 10.5 to 21 µM)	≥ 50	6.25 (≈ 21 µM)	6.25 (≈ 21 µM)	12.5 (≈ 41.9 µM)	50 (≈ 168 µM)	6.25 (≈ 21 µM)	–	–	–	–	–	–	–
CC(=Cc1cccc(O)c1)[N+](=O)[O-] [drawing 8]	3.12 (≈ 17.4 µM)	50 (≈ 279 µM)	3.12 (≈ 17.4 µM)	3.12 (≈ 17.4 µM)	3.12 (≈ 17.4 µM)	50 (≈ 279 µM)	3.12 (≈ 17.4 µM)	–	–	–	–	–	–	–
